This experiment addresses T1, OCT2 (Homo sapiens, UniProt O15244).
T1 construct: expressed in transfected cells; host or cells: CHO cells
T1 sequence (O15244 1-555): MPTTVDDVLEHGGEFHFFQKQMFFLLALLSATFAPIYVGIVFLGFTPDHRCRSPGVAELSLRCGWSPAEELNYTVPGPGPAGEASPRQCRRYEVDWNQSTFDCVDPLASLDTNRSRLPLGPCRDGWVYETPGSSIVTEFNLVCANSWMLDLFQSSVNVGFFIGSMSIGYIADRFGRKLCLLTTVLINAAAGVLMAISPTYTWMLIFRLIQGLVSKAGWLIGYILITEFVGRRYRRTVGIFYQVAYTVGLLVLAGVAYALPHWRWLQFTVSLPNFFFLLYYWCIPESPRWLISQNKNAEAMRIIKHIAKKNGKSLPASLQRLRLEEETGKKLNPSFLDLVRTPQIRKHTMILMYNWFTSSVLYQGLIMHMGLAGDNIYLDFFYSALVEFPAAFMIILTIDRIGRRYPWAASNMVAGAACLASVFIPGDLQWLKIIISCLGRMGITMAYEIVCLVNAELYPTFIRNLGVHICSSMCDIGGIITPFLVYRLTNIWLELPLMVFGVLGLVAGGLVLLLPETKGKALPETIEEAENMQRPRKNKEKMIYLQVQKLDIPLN
Nature of the experiment: Indirect uptake transporter assay, OCT2. Type of experiment: in vitro ADME. From the text:
To determine whether memantine is an inhibitor of the human OATP2B1 (OATP-B), OCT1, OCT2, OAT3, PEPT1, PEPT2 uptake transporters. The standard uptake transporter assay is an indirect, inhibitory-type screening assay, performed with cold test article, which in this case was memantine. It provides information on any interaction (substrate or inhibitor) between selected uptake transporters and memantine that would affect the transport of the reporter compound. […] A radiolabeled reporter substrate is transported into the cells transfected with the selected human uptake transporter, and the inhibitory effect of memantine on the transport of this reporter substrate is measured. Values are presented on a relative scale; 100% defined as transport in the presence of the solvent and without memantine (no inhibition), and 0% defined as transport detected without transporter activity. IC50 is defined as the concentration required to inhibit the transport of the reporter substrate by 50%. […]
After the experiment cells were rinsed with 2 x 100µl of Krebs-Henseleit buffer and lysed with 50 µl of 0.1M NaOH. ^3H-estrone-3-sulfate, ^14C-TEA, ^14C-metformin and ^3H-Gly-Sar transport was determined by total radioactivity by transferring an aliquot (35µl) from each well to a vial containing liquid scintillant for analysis.

A word on the IC50: it is the concentration at which inhibition is half-maximal.

In the case of `CC12CC3CC(C)(C1)CC(N)(C3)C2` [memantine], inhibition (OCT2-mediated metformin uptake) was half-maximal at 8.9 µM (IC50); the IC50 (OCT2, probe in Table 5: Gly-Sar (1.8 μM), methods and text: metformin) came out at 8.86 µM.

(Values after paper PMC3269340, “Pharmacokinetics of memantine in rats and mice” (PLoS Currents, 2012).)
